Laboratory results from PMC12002112, “NMR Solution Structure of the N‐Terminal GSPII Domain from the Thermus Thermophilus Traffic ATPase PilF and Reconstruction of its c‐di‐GMP Binding Capability” (Chembiochem, 2025).
Several values for one entry are separate records, joined by “and”; a condition that tells them apart may be missing. Equal values may be shown once.

What was measured:
[1] = biological target: MshEN; design: method as in PMID 27578558; conditions: monomeric c‐di‐GMP; read-out: KD (affinity) for MshEN; cited from earlier work
[2] = biological target: T1, PilF9–65 F63Y H33Q S39R A41G I55L I59L R62Q (PilF9–65 F63Y mut6) (Thermus thermophilus, UniProt Q5SLC9, A41G/F63Y/H33Q/I55L/I59L/R62Q/S39R); assay: ITC c‐di‐GMP binding, PilF9–65 F63Y mut6
T1 sequence (Q5SLC9 9-65 H33Q/S39R/A41G/I55L/I59L/R62Q/F63Y): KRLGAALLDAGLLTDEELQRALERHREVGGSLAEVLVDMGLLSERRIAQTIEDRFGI
Protocol: (§1) The c‐di‐GMP binding capabilities of the various PilF1–154, PilF1–65 and PilF9–65 constructs were characterized by isothermal titration calorimetry (ITC) measurements in three independent titrations for each construct with detectable binding to c‐di‐GMP. All ITC‐measurements were carried out in 50 mM Tris‐HCl pH 7.5, 200 mM sodium chloride, 1 mM β‐mercaptoethanol at 20 °C using a MicroCal iTC200 instrument (Malvern Pananalytical, UK). In total 40 μl c‐di‐GMP was titrated to 270 μl protein after an initial delay of 120 s in 20 injections while stirring the sample with 750 rpm. The first injection of 0.2 μl c‐di‐GMP in 0.4 s was followed by 19 successive injections of 2 μl in 4 s separated by a 180 s delay using a reference power of 11 μcal^−1. The feedback mode was set to high. Protein and c‐di‐GMP concentrations ranged from 30 μM to 100 μM and 300 μM to 1000 μM, respectively, and were adjusted to the respective binding affinities of the corresponding constructs to optimize measurement precision. Processing of the thermograms was carried out with Origin 7.0 (OriginLab) using a one‐site binding model. An overview of all ITC measurements is given in Supplementary Table 1.

[3] = test system: PilF1–65 F63Y; assay: NMR titration with c‐di‐GMP, PilF1–65 F63Y; type: binding, Thermus thermophilus
Protocol: (§2) For NMR experiments, all PilF1–154, PilF1–65 and PilF9–65 samples were prepared in a buffer containing 50 mM BisTris‐HCl pH 5.8, 200 mM NaCl, 1 mM β‐mercaptoethanol with the addition of 5 % (v/v) D2O. 200 μM 2,2‐dimethyl‐2‐silapentane‐5‐sulfonic acid (DSS) was used to directly reference the ^1H chemical shifts internally. With the appropriate conversion factors, the heteronuclear ^13C, ^15N and ^31P chemical shifts were referenced indirectly.[73] All spectra were processed and referenced with Bruker TopSpin™ versions 3.5 and 4.0.7. Chemical shifts were assigned in CARA.[74] NMR‐spectra were acquired on Bruker AVANCE 600, 700, 800, 900 and 950 MHz spectrometers equipped with cryogenic triple resonance probes at 45 °C for PilF1–154 constructs and at 20 °C for the PilF1–65 and the PilF9–65 constructs.
(§3) NMR titration experiments were carried out as ligand binding assays with uniformly ^15N labeled protein samples from 50 μM to 100 μM and unlabeled c‐di‐GMP. A series of ^15N‐HSQC, ^1H,^15N‐SOFAST‐HMQC or ^15N‐BEST‐TROSY‐HSQC spectra were recorded with increasing c‐di‐GMP concentrations (up to 1.4 mM) and chemical shift changes were evaluated with TopSpin™ 4.0.7.

[4] = biological target: T2, PilF9–65 F63Y H33Q S39R R62Q (Thermus thermophilus, UniProt Q5SLC9, F63Y/H33Q/R62Q/S39R); assay: NMR titration with c‐di‐GMP, PilF9–65 F63Y H33Q S39R R62Q; type: binding; conditions: high excess of the ligand (15fold), 20 °C
T2 sequence (Q5SLC9 9-65 H33Q/S39R/R62Q/F63Y): T1 sequence (Q5SLC9 9-65 H33Q/S39R/A41G/I55L/I59L/R62Q/F63Y)
Protocol: as §2, §3

[5] = biological target: T2, PilF9–65 F63Y H33Q S39R R62Q; assay: ITC c‐di‐GMP binding, PilF9–65 F63Y H33Q S39R R62Q; conditions: 20 °C
Protocol: as §1

[6] = test system: PilF1–154 (GSPII‐A); assay: ITC c‐di‐GMP binding, isolated GSPII‐A domain; design: species or system Thermus thermophilus; conditions: isolated PilF1–154
Protocol: as §1

[7] = biological target: T3, PilF9–65 F63Y H33Q S39R A41G R62Q (Thermus thermophilus, UniProt Q5SLC9, A41G/F63Y/H33Q/R62Q/S39R); assay: ITC c‐di‐GMP binding, PilF9–65 F63Y H33Q S39R A41G R62Q; conditions: 20 °C
T3 sequence (Q5SLC9 9-65 H33Q/S39R/A41G/R62Q/F63Y): T1 sequence (Q5SLC9 9-65 H33Q/S39R/A41G/I55L/I59L/R62Q/F63Y)
Protocol: as §1

[8] = biological target: T4, PilF1–889 (full‐length PilF) (Thermus thermophilus, UniProt Q5SLC9); assay: ITC c‐di‐GMP binding, full‐length PilF; conditions: 20 °C
T4 sequence (Q5SLC9 1-889): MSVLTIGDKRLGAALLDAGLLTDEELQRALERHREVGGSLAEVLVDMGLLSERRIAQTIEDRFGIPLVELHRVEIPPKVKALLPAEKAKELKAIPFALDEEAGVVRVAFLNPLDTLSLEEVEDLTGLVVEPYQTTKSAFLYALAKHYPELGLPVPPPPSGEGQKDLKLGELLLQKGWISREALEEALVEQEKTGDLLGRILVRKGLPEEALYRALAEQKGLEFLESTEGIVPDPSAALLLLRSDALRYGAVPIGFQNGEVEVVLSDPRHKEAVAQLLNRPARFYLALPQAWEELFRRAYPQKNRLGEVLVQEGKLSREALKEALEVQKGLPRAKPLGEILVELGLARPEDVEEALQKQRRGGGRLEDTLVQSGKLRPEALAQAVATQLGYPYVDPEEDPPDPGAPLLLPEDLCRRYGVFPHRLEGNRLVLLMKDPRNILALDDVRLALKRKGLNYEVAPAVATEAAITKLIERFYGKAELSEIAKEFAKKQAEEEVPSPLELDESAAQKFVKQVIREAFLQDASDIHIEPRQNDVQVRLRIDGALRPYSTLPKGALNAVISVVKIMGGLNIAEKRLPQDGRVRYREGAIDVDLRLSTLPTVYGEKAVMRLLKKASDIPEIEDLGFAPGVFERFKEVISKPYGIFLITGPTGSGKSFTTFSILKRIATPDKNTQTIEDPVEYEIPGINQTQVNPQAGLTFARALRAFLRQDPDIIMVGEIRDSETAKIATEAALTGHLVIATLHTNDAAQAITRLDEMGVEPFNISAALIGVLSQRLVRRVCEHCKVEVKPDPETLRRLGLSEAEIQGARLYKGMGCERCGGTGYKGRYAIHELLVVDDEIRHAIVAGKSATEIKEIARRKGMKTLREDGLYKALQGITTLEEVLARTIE

[9] = biological target: T5, PilF1–65 F63Y H33Q S39R A41G I55L I59L R62Q (PilF1–65 F63Y mut6) (Thermus thermophilus, UniProt Q5SLC9, A41G/F63Y/H33Q/I55L/I59L/R62Q/S39R); assay: NMR titration with c‐di‐GMP, PilF1–65 F63Y mut6; type: binding; conditions: high excess of ligand (10fold), 20 °C
T5 sequence (Q5SLC9 1-65 H33Q/S39R/A41G/I55L/I59L/R62Q/F63Y): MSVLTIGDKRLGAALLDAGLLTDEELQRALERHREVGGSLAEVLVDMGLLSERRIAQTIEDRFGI
Protocol: as §2, §3

[10] = test system: PilF9–65 F63Y H33Q R62Q; assay: ITC c‐di‐GMP binding, PilF9–65 F63Y H33Q R62Q; design: species or system Thermus thermophilus; conditions: S39 reintroduced
Protocol: as §1

[11] = test system: PilF1–65 F63Y; assay: ITC c‐di‐GMP binding, N‐terminal subdomain; design: species or system Thermus thermophilus
Protocol: as §1

[12] = biological target: T5, PilF1–65 F63Y H33Q S39R A41G I55L I59L R62Q (PilF1–65 F63Y mut6); assay: ITC c‐di‐GMP binding, PilF1–65 F63Y mut6
Protocol: as §1

[13] = test system: PilF1–154 H33Q S39R A41G I55L I59L R62Q; assay: NMR titration with c‐di‐GMP, MshEN‐like PilF1–154 construct; type: binding, Thermus thermophilus; conditions: 15 equivalents of c‐di‐GMP
Protocol: as §2, §3

[14] = test system: PilF1–154; assay: NMR titration with c‐di‐GMP, PilF1–154; type: binding, Thermus thermophilus; conditions: 10 equivalents of c‐di‐GMP, 45 °C
Protocol: as §2, §3

Nc1nc2c(ncn2C2OC3COP(=O)(O)OC4C(COP(=O)(O)OC3C2O)OC(n2cnc3c(=O)[nH]c(N)nc32)C4O)c(=O)[nH]1 (centres unmarked) [c‐di‐GMP, 3’→5’ cyclic dimeric guanosine monophosphate]
Kd [1]: 500 nM and ~500 nM | N ([2]; ITC, 20 °C): 1.2 ± 0.1 | ΔH ([2]; ITC, 20 °C): -12.953 ± 0.441 kcal/mol | ΔS ([2]; ITC, 20 °C): -17.9 ± 1.4 cal/mol/deg | Kd ([2]; ITC, 20 °C, pH 7.5, PilF9–65 F63Y mut6): 695 ± 42 nM | difference in the free energy of binding vs PilF1–65 F63Y mut6 ([2]; at 20° C): 1.6 kcal/mol | c‐di‐GMP binding in NMR titration [3]: not detectable | c‐di‐GMP binding in NMR titration [4]: saturated ligand binding | N [5]: 0.7 ± 0.1 | ΔH [5]: -9.574 ± 0.243 kcal/mol | ΔS [5]: -3.6 ± 0.7 cal/mol/deg | Kd ([5]; pH 7.5, PilF9–65 F63Y H33Q S39R R62Q): 19000 ± 6000 nM | c‐di‐GMP binding in ITC [6]: did not show any sign of c‐di‐GMP binding | N [7]: 0.8 ± 0.1 | ΔH [7]: -10.127 ± 0.499 kcal/mol | ΔS [7]: -6.4 ± 1.7 cal/mol/deg | Kd ([7]; pH 7.5, PilF9–65 F63Y H33Q S39R A41G R62Q): 1800 ± 300 nM | ΔH (binding event 1) ([8]; event 1): -11.763 ± 0.78 kcal/mol | ΔS (binding event 1) ([8]; event 1): -10.4 ± 2.7 cal/mol/deg | ΔH (binding event 2) ([8]; event 2): -15.683 ± 0.97 kcal/mol | ΔS (binding event 2) ([8]; event 2): -16.5 ± 2.2 cal/mol/deg | Kd ([8]; pH 7.5, PilF1–889, binding event 1, read-out: KD1 (first binding event)): 324 nM | N (binding event 1) ([8]; stoichiometry, event 1): 0.72 ± 0.1 | N (binding event 2) ([8]; stoichiometry, event 2): 0.59 ± 0.03 | chemical shift changes on adding c‐di‐GMP [9]: large chemical shift changes | c‐di‐GMP binding activity in ITC [10]: complete loss of c‐di‐GMP binding activity | c‐di‐GMP binding in ITC [11]: not detectable | N ([12]; ITC, 20 °C): 0.6 ± 0.2 | ΔH ([12]; ITC, 20 °C): -1.342 ± 0.513 kcal/mol | ΔS ([12]; ITC, 20 °C): 17.1 ± 2.3 cal/mol/deg | Kd ([12]; ITC, 20 °C, pH 7.5, PilF1–65 F63Y mut6): 13000 ± 2000 nM | difference in the free energy of binding vs MshEN ([12]; at 20° C): ~ 1.9 kcal/mol | difference in the free energy of binding vs N‐terminal subdomain (residue 1–62) of MshEN ([12]; at 20° C): ~2.3 kcal/mol | c‐di‐GMP binding in NMR‐titration [13]: no c‐di‐GMP binding | chemical shift changes on adding c‐di‐GMP [14]: does not cause any chemical shift changes
